Data published in patent EP2667887B1, “PHARMACEUTICAL COMPOSITION COMPRISING THE PEPTIDE GLU-ASP-GLY AND USE FOR TREATING HELICOBACTER PYLORI INDUCED GASTRODUODENAL DISEASES” («Garmonia», Ltd., priority 2011, dated 2012).

Tests used:
[1] = system: human gastric epithelium cells SGC7901; experiment: Effect on Helicobacter pylori-induced mitochondrial mechanisms of apoptosis in gastric epitheliocytes (mito-GFP confocal microscopy); type: cell-based; settings: peptide 10 µM 30 minutes before Helicobacter pylori (strain Cag J117), 7 hours
Procedure: To evaluate the biological activity and effects of peptide H-Glu-Asp-Gly-OH on mitochondrial mechanisms of apoptosis in gastric epitheliocytes, induced by Helicobacter pylori germs, human gastric epithelium cells SGC7901 were studied. The cells were cultivated at 37°C in a damp incubation medium containing 50 mL/L CO2 in DMEM (Dulbecco's Modified Eagle's Medium, ICN Biomedicals) and 10% calf embryonic serum. A preliminary separation of cells for passaging was carried out in the ratio of 1:3-1:5 using a mixture of 0.125% trypsin, 0.02M EDTA (ethylenediaminetetraacetic acid), 0.02% glucose dissolved in a phosphate buffer. The cells were placed on a 24-well plate in the amount of 10^6 cells per well. The cells were passaged in a cultivation medium for 5 days and then taken for study.
On the 5th day after the beginning of cell passaging the peptide H-Glu-Asp-Gly-OH in the dose of 10 µM was administered in the cultivation medium, and in 30 minutes of incubation the cells were taken for study. Klacid antibiotic (clarithromycin, Abbott) in the dose of 500 ng/mL was administered to the cultures in the same conditions as positive control. […]
The status of isolated mitochondria was evaluated using immunofluorescent confocal laser microscopy. […]
Confocal microscopy of mitochondria with optical density evaluation was performed in an inverted confocal microscope Olympus Fluoview CM FV300-IX70 using an apochromatic lens 606 UPlan (Olympus). A 488 nm excitation wave of argon laser was used in each chamber to specify mito-GFP fluorescence that verifies the structure of mitochondria.

modeled ulcer = experiment: Morphology study of the induced gastric ulcer (cysteamine-HCL + Helicobacter pylori); type: in vivo, Sprague Dawley rats
Procedure: The study was carried out on 90 male Sprague Dawley rats (180-220 g) randomly subdivided into 9 groups (10 animals per group): • Group 1 - intact rats (saline solution) • Group 2 - modeled ulcer + saline solution • Group 3 (6 subgroups) - modeled ulcer + H-Glu-Asp-Gly-OH • Group 4 - modeled ulcer + Klacid antibiotic
Ulcer was modeled by three-time administration (in 4 hours) in the rat stomach of cysteamine-HCL (Aldrich, Milwannee, WI) by means of a probe in the dose of 25 mg per 100 g of body weight. The ulcer, approximately 28 mm^2 in size, appeared at the boundary between antral and fundal segments of the stomach 12 hours after the last administration. Simultaneously with the first administration of cysteamine-HCL a Helicobacter pylori culture (Curtin Matheson Scientific Inc, strain Cag J117, 100 microbial cells) was administered in the rat stomach through the same probe.
(§1) A means on the basis of the pharmaceutical composition comprising the studied peptide H-Glu-Asp-Gly-OH was administered subcutaneously in the dose of 1 µg per kg of animal body weight (group 3a), 2,5 µg per kg of body weight (group 3b) and 10 µg per kg of body weight (group 3c) in 0,5 ml of saline solution daily, for 5 days from the occurrence of the stomach ulcer.
as §1, with “The means” for “A means”, “administered intragastrically (through a probe)” for “administered subcutaneously”, “(group 3d),” for “(group 3a),”, “(group 3e)” for “(group 3b)”, “(group 3f)” for “(group 3c)”
Antibiotic Klacid (clarithromycin, Abbott) was administered intramuscularly in the dose of 10 mg in 1 ml of saline solution daily for 5 days from the occurrence of the stomach ulcer.
Material for study was taken from ulcer edge on the 7th day (for western blot assay and polymerase chain reaction in real time - RT-PCR), as well as on the 7th, 15th and 21st day for morphology study and confocal microscopy.
For a morphology study, pieces of gastric mucous membrane from the ulcer edge were fixed in 10% neutral formalin (pH 7.2), then the material was dried out in a Leica TP1020 automatic station (Leica) and covered with paraffin. 5 µm thick paraffin slices were placed on object plates covered with a poly-L-lysine film (Sigma). For a visual study the slices were stained with hematoxylin and eosin, as well as with picrofuxin by the van Gison method.

In the case of “glutamyl-aspartyl-glycine [H-Glu-Asp-Gly-OH]”, the “mitochondrial GFP expression by optical density” value ([1]; control 2.57±0.23, H. pylori alone 0.35±0.05) is reported as 2.48±0.17 conv. units, the “mitochondrial GFP expression by expression area” value ([1]; control 3.42±0.19, H. pylori alone 0.63±0.03) is reported as 3.84±0.20% and the “ulcer pathomorphosis, 7th day” value (modeled ulcer; 7th day after ulcer induction, treatment daily for 5 days, peptide 1, 2,5, 10 µg/kg subcutaneously or intragastrically, Klacid 10 mg intramuscularly) is reported as “a decrease both in the area of the ulcerous lesion and in its depth was observed”. For the same substance, the “ulcer pathomorphosis, 15th day” value (modeled ulcer; 15th day after ulcer induction, treatment daily for 5 days, peptide 1, 2,5, 10 µg/kg subcutaneously or intragastrically, Klacid 10 mg intramuscularly) was “a significant decrease in ulcerous lesion area and depth was observed”, the “ulcer pathomorphosis, 21st day” value (modeled ulcer; 21st day after ulcer induction, treatment daily for 5 days, peptide both methods of administration and three dosages, Klacid 10 mg intramuscularly) was “no ulcerous lesions were macroscopically observed” and the “pathomorphosis of an induced gastric ulcer (Fig. 12 C)” value (modeled ulcer; 21st day, peptide dose 2,5 µg/kg) was “complete epithelization of the ulcer”. For the same substance, the “delay of epithelialization of the ulcerous lesion compared to higher doses” value (modeled ulcer; dose 1,0 µg/kg (Groups 3a and 3d) versus 2,5 µg/kg and 10 µg/kg) was 2 to 3 days.
